In patent US10227331B2 (priority 2015, dated 2019):

Legend:
IMP-1 = IMP-1 (Serratia marcescens, UniProt P52699); assay: biochemical; format: biochemical; conditions: CCF2-FA substrate, 2 hours at 25° C; read-out: IMP-1 IC50
Method in brief: (§1)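 IC50 values derive from 4-parameter fits of percent inhibition against inhibitor concentration on semi-log axes. Activity was monitored by fluorescence with the CCF2-FA substrate after a 2-hour, 25° C incubation of compound, enzyme and substrate.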

NDM-1 = NDM-1 (Klebsiella pneumoniae, UniProt C7C422); assay: biochemical; format: biochemical; conditions: CCF2-FA substrate, 2 hours at 25° C; read-out: NDM-1 IC50
Method in brief: as §1

VIM-1 = VIM-1 (Pseudomonas aeruginosa (strain ATCC 15692 / DSM 22644 / CIP 104116 / JCM 14847 / LMG 12228 / 1C / PRS 101 / PAO1), UniProt A0A0F7KYQ8); assay: biochemical; conditions: CCF2-FA substrate, 2 hours at 25° C
Method in brief: as §1

[1] = system: Escherichia coli expressing NDM-1 (CLB30005, CLB30016); format: cell-based; conditions: with imipenem 1 μg/ml, 95% inhibition of bacterial growth; for Escherichia coli MITC95: NDM-1 (CLB30016)
Method in brief: (§2)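 Restoration of imipenem susceptibility (1 μg/ml imipenem) was judged by absorbance after 22–24 h at 35° C. Test compound was added to bacteria suspended 1:100 in 1.1× CAMHB from overnight blood-agar cultures.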

[2] = system: Klebsiella pneumoniae expressing VIM-1 (IHMA599644); format: cell-based; conditions: with imipenem 1 μg/ml, 95% inhibition of bacterial growth; for Klebsiella pneumoniae MITC95: VIM-1 (IHMA599644)
Method in brief: as §2

[3] = system: Serratia marcescens expressing IMP-1 (CL5741); format: cell-based; conditions: with imipenem 1 μg/ml, 95% inhibition of bacterial growth; for Serratia marcescens MITC95: IMP-1 (CL5741)
Method in brief: as §2

[4] = system: P. aeruginosa expressing IMP-1, efflux+ (MB9798); format: cell-based, Pseudomonas aeruginosa; conditions: for P. aeruginosa expressing IMP-1, efflux+ (MB9798) MITC95: imipenem at 2 μg/mL, in the presence of a class A, C, D serine β-lactamase inhibitor closely related to relebactam; for Efflux ratio: ratio MITC95 PA_9798/MITC95 PA_9799
Source text: (§3) The strain background is Pseudomonas aeruginosa PAO1.

[5] = system: P. aeruginosa expressing IMP-1, efflux− (MB9799); assay: Efflux: concentration of MBL inhibitor which restores susceptibility to imipenem; format: cell-based, Pseudomonas aeruginosa; conditions: imipenem at 2 μg/mL, in the presence of a class A, C, D serine β-lactamase inhibitor closely related to relebactam
Source text: as §3

Sequence of NDM-1 (C7C422 whole entry, looked up, species assumed): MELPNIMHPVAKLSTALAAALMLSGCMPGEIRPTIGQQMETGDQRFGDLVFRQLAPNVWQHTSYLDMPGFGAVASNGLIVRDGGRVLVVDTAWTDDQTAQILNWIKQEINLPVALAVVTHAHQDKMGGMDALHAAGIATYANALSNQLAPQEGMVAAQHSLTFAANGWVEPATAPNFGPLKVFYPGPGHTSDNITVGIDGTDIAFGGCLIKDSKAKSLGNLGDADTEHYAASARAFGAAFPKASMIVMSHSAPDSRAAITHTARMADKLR
Sequence of IMP-1 (P52699 whole entry, looked up, species assumed): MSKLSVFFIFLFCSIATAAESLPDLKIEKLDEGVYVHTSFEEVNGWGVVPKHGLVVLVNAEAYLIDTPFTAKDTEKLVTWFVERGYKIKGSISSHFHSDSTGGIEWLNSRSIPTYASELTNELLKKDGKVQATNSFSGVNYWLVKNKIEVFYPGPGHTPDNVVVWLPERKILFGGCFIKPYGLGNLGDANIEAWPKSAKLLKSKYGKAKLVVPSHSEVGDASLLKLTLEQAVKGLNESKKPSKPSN

Structure (SMILES) | IC50 (IMP-1) [nM] | IC50 (NDM-1) [nM] | IC50 (VIM-1) [nM] | Escherichia coli expressing NDM-1 (CLB30016) MITC95 [1] [µM] | Klebsiella pneumoniae expressing VIM-1 (IHMA599644) MITC95 [2] [µM] | Serratia marcescens expressing IMP-1 (CL5741) MITC95 [3] [µM] | P. aeruginosa expressing IMP-1, efflux+ (MB9798) MITC95 [4] [µM] | Efflux ratio [4] | P. aeruginosa expressing IMP-1, efflux− (MB9799) MITC95 [5] [µM] | Escherichia coli MITC95 [1] [µM] | Klebsiella pneumoniae MITC95 [2] [µM] | Serratia marcescens MITC95 [3] [µM]
NCCS(=O)(=O)c1ccc(-c2ccc3nc(N)oc3c2)c(-c2nn[nH]n2)c1S(N)(=O)=O [Example 75, 3-(2-aminobenzo[d]oxazol-6-yl)-6-(2-aminoethylsulfonyl)-2-(2H-tetrazol-5-yl)benzenesulfonamide] | 0.433 | 0.5 | 0.283 | 1.563 | 1.563 | 1.563 | 6.25 | 8.00 | 0.7813 | – | – | –
NC[C@H](O)CS(=O)(=O)c1ccc(-c2cccc3[nH]c(N)nc23)c(-c2nn[nH]n2)c1S(N)(=O)=O [Example 282, 3-(2-amino-1H-benzo[d]imidazol-4-yl)-6-((S)-3-amino-2-hydroxypropylsulfonyl)-2-(2H-tetrazol-5-yl)benzenesulfonamide] | 0.777 | 0.157 | 0.28 | – | – | – | 0.418 | 1.00 | 0.418 | 0.3438 | 0.8359 | 0.5156
NS(=O)(=O)c1c(S(=O)(=O)C2CNC2)ccc(C2=CCS(=O)(=O)CC2)c1-c1nn[nH]n1 [Example 218, 6-(azetidin-3-ylsulfonyl)-3-(1,1-dioxido-3,6-dihydro-2H-thiopyran-4-yl)-2-(2H-tetrazol-5-yl) benzenesulfonamide] | 3.55 | 1.75 | 2.23 | 0.3906 | 3.125 | 1.563 | 12.5 | 8.00 | 1.563 | – | – | –
Cn1c(N)nc2c(-c3ccc(S(=O)(=O)C[C@H](O)CN)c(S(N)(=O)=O)c3-c3nn[nH]n3)cccc21 [Example 362, (R)-3-(2-amino-1-methyl-1H-benzo[d]imidazol-4-yl)-6-((3-amino-2-hydroxypropyl)sulfonyl)-2-(2H-tetrazol-5-yl) benzenesulfonamide] | 0.408 | 0.295 | 0.605 | – | – | – | 0.7813 | 1.00 | 0.7813 | 0.3906 | 1.563 | 0.7813
Nc1ccc(-c2ccc(S(=O)(=O)C3CNC3)c(S(N)(=O)=O)c2-c2nn[nH]n2)cn1 [Example 25, 3-(6-aminopyridin-3-yl)-6-(azetidin-3-ylsulfonyl)-2-(2H-tetrazol-5-yl)benzenesulfonamide] | 0.862 | 0.532 | 0.441 | 0.5156 | 2.135 | 0.6719 | 2.302 | 2.18 | 1.058 | – | – | –
NS(=O)(=O)c1c(S(=O)(=O)C2CCNCC2)ccc(-c2ccc(C3CCNCC3)cc2)c1-c1nnn[nH]1 [Example 228, 4′-(piperidin-4-yl)-4-(piperidin-4-ylsulfonyl)-2-(1H-tetrazol-5-yl)-[1,1′-biphenyl]-3-sulfonamide] | 0.521 | 0.985 | 0.314 | 1.563 | 3.125 | 3.125 | 0.7813 | 1.00 | 0.7813 | – | – | –
Cc1nc(N)ccc1-c1ccc(S(=O)(=O)CCN)c(S(N)(=O)=O)c1-c1nnn[nH]1.O=C(O)C(F)(F)F [Example 170, 2-((4-(6-amino-2-methylpyridin-3-yl)-2-sulfamoyl-3-(1H-tetrazol-5-yl)phenyl)sulfonyl)ethanaminium 2,2,2-trifluoroacetate] | 2.87 | 3.48 | 1.01 | 0.3906 | 3.125 | 0.7813 | 6.25 | 4.00 | 1.563 | – | – | –
NCCS(=O)(=O)c1ccc(-c2ccc3[nH]c(=O)oc3c2)c(-c2nnn[nH]2)c1S(N)(=O)=O.O=C(O)C(F)(F)F [Example 155, 2-((4-(2-oxo-2,3-dihydrobenzo[d]oxazol-6-yl)-2-sulfamoyl-3-(1H-tetrazol-5-yl)phenyl)sulfonyl)ethanaminium 2,2,2-trifluoroacetate] | 0.226 | 0.814 | 0.289 | 0.7813 | 1.563 | 1.563 | 3.125 | 4.00 | 0.7813 | – | – | –
NS(=O)(=O)c1c(S(=O)(=O)C2CNC2)ccc([C@H]2CC[C@@H](N)CC2)c1-c1nnn[nH]1 [Example 213, 3-((1s,4s)-4-aminocyclohexyl)-6-(azetidin-3-ylsulfonyl)-2-(1H-tetrazol-5-yl) benzenesulfonamide] | 68.3 | 12.9 | 7.04 | 1.563 | 3.125 | 1.563 | 6.25 | 4.00 | 1.563 | – | – | –
NCCS(=O)(=O)c1ccc(-c2cccc(C(=O)O)c2N)c(-c2nn[nH]n2)c1S(N)(=O)=O [Example 199, 2-Amino-4′-((2-aminoethyl)sulfonyl)-3′-sulfamoyl-2′-(2H-tetrazol-5-yl)-[1,1′-biphenyl]-3-carboxylic Acid] | 1.84 | 0.197 | 0.646 | 6.25 | 25 | 12.5 | 12.5 | 2.00 | 6.25 | – | – | –
Nc1nc2ccc(-c3ccc([S+]([O-])C4CCNCC4)c(S(N)(=O)=O)c3-c3nn[nH]n3)cc2[nH]1 (stereo not drawn) [Example 12, 3-(2-amino-3H-benzo[d]imidazol-5-yl)-6-(piperidin-4-ylsulfinyl)-2-(2H-tetrazol-5-yl)benzenesulfonamide] | 130 | 4.06 | 4.36 | 6.25 | 6.25 | 6.25 | 25 | 8.00 | 3.125 | – | – | –
NC[C@H](O)CS(=O)(=O)c1ccc(-c2ccc(N)nc2)c(-c2nn[nH]n2)c1S(N)(=O)=O [Example 365, (S)-6-((3-amino-2-hydroxypropyl)sulfonyl)-3-(6-aminopyridin-3-yl)-2-(2H-tetrazol-5-yl) benzenesulfonamide] | 1.21 | 1.53 | 0.632 | – | – | – | 1.172 | 1.50 | 0.7813 | 0.293 | 2.344 | 0.7813
NCCS(=O)(=O)c1ccc(-c2cccc3ncccc23)c(-c2nn[nH]n2)c1S(N)(=O)=O [Example 324, 6-((2-aminoethyl)sulfonyl)-3-(quinolin-5-yl)-2-(2H-tetrazol-5-yl) benzenesulfonamide] | 0.55 | 0.222 | 0.139 | – | – | – | 6.25 | 8.00 | 0.7813 | 1.563 | 3.125 | 1.563
